The target in the assay is recombinant human DHODH (Homo sapiens, UniProt Q02127). Nature of the assay: Endpoint DHODH enzyme assay (coenzyme Q10, DCIP). Set-up: purchased Prospecbio ENZ-642. To be noted: compound at 10 µM. It counts as biochemical. The procedure:
In Supplementary Tables 5 and 6, endpoint assays were performed with 10 nM recombinant human DHODH (#ENZ-642, Prospecbio). The reaction mixture consisted of 624.6 µM DL-dihydroorotic acid, 66.4 µM coenzyme Q10, 66.4 µM 2,6-dichlorophenolindophenol sodium salt (DCIP) (all reagents purchased from Sigma-Aldrich) in enzyme buffer (50 mM Tris-HCl, pH 8.0, 0.1% Triton X-100, 150 mM KCl). Loss in absorbance by DCIP was measured at 595 nm after incubation at RT for 60 min.

Setting [1] is: Supplementary Table 6, 30,000 compound library.
The mark [2] stands for this setting: Supplementary Table 5, 20,000 compound library.

The record followed here is paper PMC5856786, “A DHODH inhibitor increases p53 synthesis and enhances tumor cell killing by p53 degradation blockage” (Nature Communications, 2018).

Counter-ions that a name gives are not always drawn.

recombinant human DHODH, sequence (Q02127 31-395 limits assumed): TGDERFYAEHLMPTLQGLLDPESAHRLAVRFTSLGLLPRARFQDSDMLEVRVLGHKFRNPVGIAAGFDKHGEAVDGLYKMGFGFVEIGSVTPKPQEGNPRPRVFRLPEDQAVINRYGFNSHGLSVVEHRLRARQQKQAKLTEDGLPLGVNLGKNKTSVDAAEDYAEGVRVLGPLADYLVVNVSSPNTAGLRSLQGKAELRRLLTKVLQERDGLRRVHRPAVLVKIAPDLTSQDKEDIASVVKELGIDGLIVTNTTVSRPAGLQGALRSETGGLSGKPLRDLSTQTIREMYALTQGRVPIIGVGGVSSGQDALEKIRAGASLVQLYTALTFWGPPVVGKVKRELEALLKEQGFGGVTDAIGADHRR

Consider `O=[N+]([O-])c1ccc2[nH]c3c(c2c1)CCCC3NC1CCN(CCc2ccccc2)CC1` (stereo not drawn) [compound 5781441, 6-nitro-N-[1-(2-phenylethyl)-4-piperidinyl]-2,3,4,9-tetrahydro-1H-carbazol-1-amine], for which the remaining activity at 10 µM under setting [1] came out at 59.6%.

In the case of `COc1ccc(CC(C)NC2CCCc3c2[nH]c2ccc([N+](=O)[O-])cc32)cc1OC` (stereo not drawn) [compound 5781442, N-[2-(3,4-dimethoxyphenyl)-1-methylethyl]-6-nitro-2,3,4,9-tetrahydro-1H-carbazol-1-amine], the remaining activity at 10 µM under setting [1] came to 78.3%.

For `O=[N+]([O-])c1ccc2[nH]c3c(c2c1)CCCC3NC1Cc2ccccc2C1` (stereo not drawn) [compound 5781444, N-(2,3-dihydro-1H-inden-2-yl)-6-nitro-2,3,4,9-tetrahydro-1H-carbazol-1-amine], the remaining activity at 10 µM under setting [1] was 57.9%.

Consider `CC1CCC(NC2CCCc3c2[nH]c2ccc([N+](=O)[O-])cc32)C1` (stereo not drawn) [compound 5781446, N-(3-methylcyclopentyl)-6-nitro-2,3,4,9-tetrahydro-1H-carbazol-1-amine], for which the remaining activity at 10 µM under setting [1] is 60.5%.

Consider `CC1CCC(NC2CCCc3c2[nH]c2ccc([N+](=O)[O-])cc32)CC1` (stereo not drawn) [compound 5781447, N-(4-methylcyclohexyl)-6-nitro-2,3,4,9-tetrahydro-1H-carbazol-1-amine], for which the remaining activity at 10 µM under setting [1] turned out to be 56.8%.

On to `COc1ccccc1CC(C)NC1CCCc2c1[nH]c1ccc([N+](=O)[O-])cc21` (stereo not drawn) [compound 5781453, N-[2-(2-methoxyphenyl)-1-methylethyl]-6-nitro-2,3,4,9-tetrahydro-1H-carbazol-1-amine], for which the remaining activity at 10 µM under setting [1] was found to be 52.4%.

On to `CC(Cc1ccccc1F)NC1CCCc2c1[nH]c1ccc([N+](=O)[O-])cc21` (stereo not drawn) [compound 5781454, N-[2-(2-fluorophenyl)-1-methylethyl]-6-nitro-2,3,4,9-tetrahydro-1H-carbazol-1-amine], for which the remaining activity at 10 µM under setting [1] was 55.4%.

For the compound `CC(C)NC1CCCc2c1[nH]c1ccc([N+](=O)[O-])cc21` (stereo not drawn) [compound 5781470, N-isopropyl-6-nitro-2,3,4,9-tetrahydro-1H-carbazol-1-amine], the remaining activity at 10 µM under setting [1] turned out to be 90.2%.

As to `COc1ccc(C=NN2CCN(Cc3ccccc3)CC2)c(OC)c1` [compound 5783994, 4-benzyl-N-(2,4-dimethoxybenzylidene)-1-piperazinamine], the remaining activity at 10 µM under setting [1] was 101%.

As to `Cc1cccc(Cc2cnc(NC(=O)c3ccc(Br)cc3)s2)c1` [compound 5852371, 4-bromo-N-[5-(3-methylbenzyl)-1,3-thiazol-2-yl]benzamide], the remaining activity at 10 µM under setting [1] amounted to 97.6%.

Turning to `COc1ccccc1NC(=O)C1c2ccccc2Oc2ccccc21` [compound 5867214, N-(2-methoxyphenyl)-9H-xanthene-9-carboxamide], the remaining activity at 10 µM under setting [1] is 99.2%.

Consider `Cc1ccc2[nH]c3c(c2c1)CCCC3NCc1ccccc1` (stereo not drawn) [compound 5869604, N-benzyl-6-methyl-2,3,4,9-tetrahydro-1H-carbazol-1-amine hydrochloride], for which, under setting [1], the remaining activity at 10 µM turned out to be 27.3%.

As to `COc1ccc(Cl)cc1NC1=C(Cl)C(=O)N(c2cccc(C)c2C)C1=O` [compound 6149306, 3-chloro-4-[(5-chloro-2-methoxyphenyl)amino]-1-(2,3-dimethylphenyl)-1H-pyrrole-2,5-dione], the remaining activity at 10 µM under setting [1] is 99.6%.

As to `CC(C)Oc1ccc(C(=O)NC(=S)Nc2ccc(N3CCCCC3)cc2)cc1` [compound 6497060, 4-isopropoxy-N-({[4-(1-piperidinyl)phenyl]amino}carbonothioyl)benzamide], under setting [1], the remaining activity at 10 µM was 101%.

Turning to `CCOc1ccc(NC(=S)NC(=O)c2ccc(C(C)(C)C)cc2)cc1` [compound 6501326, 4-tert-butyl-N-{[(4-ethoxyphenyl)amino]carbonothioyl}benzamide], the remaining activity at 10 µM under setting [1] is 84.1%.

Take `COc1ccc(NC(=S)NC(=O)c2ccc(C(C)(C)C)cc2)c(OC)c1` [compound 6513572, 4-tert-butyl-N-{[(2,4-dimethoxyphenyl)amino]carbonothioyl}benzamide]: under setting [1], the remaining activity at 10 µM amounted to 97.8%.

In the case of `CC(C)(C)c1ccc(C(=O)NC(=S)Nc2cccc([N+](=O)[O-])c2)cc1` [compound 6515740, 4-tert-butyl-N-{[(3-nitrophenyl)amino]carbonothioyl}benzamide], the remaining activity at 10 µM under setting [1] came out at 88.9%.

In the case of `CC(C)(C)c1ccc(C(=O)NC(=S)Nc2cccc(NC(=O)c3ccccc3)c2)cc1` [compound 6519439, N-({[3-(benzoylamino)phenyl]amino}carbonothioyl)-4-tert-butylbenzamide], the remaining activity at 10 µM under setting [1] is 63.2%.

In the case of `Cc1ccccc1NC(=S)NC(=O)c1cccc2c(Br)cccc12` [compound 6592864, 5-bromo-N-{[(2-methylphenyl)amino]carbonothioyl}-1-naphthamide], the remaining activity at 10 µM under setting [2] worked out at 72.2%.

Turning to `Cc1cc(O)c(NC(=S)NC(=O)c2ccc(C(C)(C)C)cc2)cc1C` [compound 6611243, 4-tert-butyl-N-{[(2-hydroxy-4,5-dimethylphenyl)amino]carbonothioyl}benzamide], under setting [1], the remaining activity at 10 µM was 51%.

For `O=c1oc2ccccc2cc1-c1cn2cc(Cl)ccc2n1` [compound 6623100, 3-(6-chloroimidazo[1,2-a]pyridin-2-yl)-2H-chromen-2-one], under setting [2], the remaining activity at 10 µM stood at 96.3%.

As for `COc1cc(C=C2N=C(SC)SC2=O)cc(Br)c1OCc1ccccc1` [compound 6638116, 4-[4-(benzyloxy)-3-bromo-5-methoxybenzylidene]-2-(methylthio)-1,3-thiazol-5(4H)-one], the remaining activity at 10 µM under setting [1] was 78.8%.

Regarding `CSC1=NC(=Cc2ccc(OCc3ccccc3)cc2)C(=O)S1` [compound 6638197, 4-[4-(benzyloxy)benzylidene]-2-(methylthio)-1,3-thiazol-5(4H)-one], under setting [1], the remaining activity at 10 µM turned out to be 74.9%.

Turning to `c1ccc(OCCNc2ccc3ccccc3c2)cc1` [compound 6641022, 2-naphthyl(2-phenoxyethyl)amine], the remaining activity at 10 µM under setting [1] worked out at 66%.

Regarding `COc1ccc(OC)c(C(C)NC(=O)c2ccco2)c1` (stereo not drawn) [compound 6912406, N-[1-(2,5-dimethoxyphenyl)ethyl]-2-furamide], under setting [2], the remaining activity at 10 µM was 93.2%.

Consider `COc1cc(CNc2ccc(C)c(Cl)c2)cc(Cl)c1OC` [compound 7574753, (3-chloro-4,5-dimethoxybenzyl)(3-chloro-4-methylphenyl)amine], for which the remaining activity at 10 µM under setting [2] came to 79.9%.

Turning to `CCN(CC)c1ccc(NC(=S)NC(=O)c2cccc(C)c2OC)cc1` [compound 7578012, N-({[4-(diethylamino)phenyl]amino}carbonothioyl)-2-methoxy-3-methylbenzamide], the remaining activity at 10 µM under setting [2] stood at 79%.

Turning to `CCOc1cccc2c(C)nc(Nc3nc(=O)c4c([nH]3)CCCC4)nc12` [compound 7587351, 2-[(8-ethoxy-4-methyl-2-quinazolinyl)amino]-5,6,7,8-tetrahydro-4(1H)-quinazolinone], the remaining activity at 10 µM under setting [2] was 92.7%.

In the case of `O=S(=O)(CCSc1nc2ccccc2o1)c1nc2ccccc2s1` [compound 7617239, 2-{[2-(1,3-benzothiazol-2-ylsulfonyl)ethyl]thio}-1,3-benzoxazole], the remaining activity at 10 µM under setting [2] is 103%.

Consider `CCc1cccc(C)c1NC(=O)CSc1nc2ccccc2c(=O)n1-c1cccc2ccccc12` [compound 7638934, N-(2-ethyl-6-methylphenyl)-2-{[3-(1-naphthyl)-4-oxo-3,4-dihydro-2-quinazolinyl]thio}acetamide], for which the “remaining DHODH activity (%) Average” value under setting [2] worked out at 72.65%.

As to `O=C(Nc1nc2c(s1)CCCC2)C(=O)c1c[nH]c2ccccc12` [compound 7690424, 2-(1H-indol-3-yl)-2-oxo-N-(4,5,6,7-tetrahydro-1,3-benzothiazol-2-yl)acetamide], the remaining activity at 10 µM under setting [2] was 11%.

Take `CC1=C(C(=O)Nc2ccc(F)cc2)C(c2ccccc2OCc2ccccc2)C2=C(CCCC2=O)N1` (stereo not drawn) [compound 7705624, 4-[2-(benzyloxy)phenyl]-N-(4-fluorophenyl)-2-methyl-5-oxo-1,4,5,6,7,8-hexahydro-3-quinolinecarboxamide]: under setting [2], the “remaining DHODH activity (%) Average” value is 104.27%.

In the case of `CCOC(=O)C1=C(C)NC2=C(C(=O)CC(c3ccco3)C2)C1c1cccs1` (stereo not drawn) [compound 7706732, ethyl 7-(2-furyl)-2-methyl-5-oxo-4-(2-thienyl)-1,4,5,6,7,8-hexahydro-3-quinolinecarboxylate], the “remaining DHODH activity (%) Average” value under setting [2] was determined as 95.89%.

As to `CCOc1cc(C=Cc2ccc3cccc(OC(=O)CC)c3n2)ccc1OC(=O)CC` [compound 7706999, 2-{2-[3-ethoxy-4-(propionyloxy)phenyl]vinyl}-8-quinolinyl propionate], the remaining activity at 10 µM under setting [2] turned out to be 98.2%.

Turning to `Cc1ccc(CSCC(=O)Nc2ccccc2C(=O)O)cc1` [compound 7723007, 2-({[(4-methylbenzyl)thio]acetyl}amino)benzoic acid], the remaining activity at 10 µM under setting [2] is -8.22%.

Take `O=C(Nc1cc(C(F)(F)F)cc(C(F)(F)F)c1)c1c(F)c(F)c(F)c(F)c1F` [compound 7739721, N-[3,5-bis(trifluoromethyl)phenyl]-2,3,4,5,6-pentafluorobenzamide]: the remaining activity at 10 µM under setting [2] came out at 98.2%.

On to `Oc1ccccc1-c1nc(C=Cc2cccs2)n[nH]1` [compound 7776857, 2-{3-[2-(2-thienyl)vinyl]-1H-1,2,4-triazol-5-yl}phenol], for which, under setting [2], the remaining activity at 10 µM came to 77.3%.

With `Cc1cc(O)ccc1NC(=O)c1ccc(-c2ccccc2)cc1` [compound 7782544, N-(4-hydroxy-2-methylphenyl)-4-biphenylcarboxamide], under setting [2], the remaining activity at 10 µM is 73.5%.

As for `NC(=O)c1ccccc1NC(=O)Nc1ccccc1C(F)(F)F` [compound 7794325, 2-[({[2-(trifluoromethyl)phenyl]amino}carbonyl)amino]benzamide], the remaining activity at 10 µM under setting [2] turned out to be 92.2%.
